Assay results from patent US20240199546A1, “INHIBITORS OF SOLUTE CARRIER FAMILY 6A MEMBER 19 (SLC6A19) AND METHODS OF USE THEREOF” (Maze Therapeutics, Inc., priority 2022, published 2024).
pIC50: −log10 of the molar value. Where a name gives a salt, the structure may show the parent alone.

Columns and labels:
[1] = target: T1, human SLC6A19 and TMEM27 (Homo sapiens, UniProt Q695T7); experiment: 13C6,15N-isoleucine uptake in CHO cells with doxycycline-inducible expression of human SLC6A19 and TMEM27, RapidFire mass spectrometry (Example B-2); type: cell-based; settings: read-out: SLC6A19_RapidFire Uptake Assay IC50
T1 construct: expressed in transfected cells
T1 sequence (Q695T7 1-634): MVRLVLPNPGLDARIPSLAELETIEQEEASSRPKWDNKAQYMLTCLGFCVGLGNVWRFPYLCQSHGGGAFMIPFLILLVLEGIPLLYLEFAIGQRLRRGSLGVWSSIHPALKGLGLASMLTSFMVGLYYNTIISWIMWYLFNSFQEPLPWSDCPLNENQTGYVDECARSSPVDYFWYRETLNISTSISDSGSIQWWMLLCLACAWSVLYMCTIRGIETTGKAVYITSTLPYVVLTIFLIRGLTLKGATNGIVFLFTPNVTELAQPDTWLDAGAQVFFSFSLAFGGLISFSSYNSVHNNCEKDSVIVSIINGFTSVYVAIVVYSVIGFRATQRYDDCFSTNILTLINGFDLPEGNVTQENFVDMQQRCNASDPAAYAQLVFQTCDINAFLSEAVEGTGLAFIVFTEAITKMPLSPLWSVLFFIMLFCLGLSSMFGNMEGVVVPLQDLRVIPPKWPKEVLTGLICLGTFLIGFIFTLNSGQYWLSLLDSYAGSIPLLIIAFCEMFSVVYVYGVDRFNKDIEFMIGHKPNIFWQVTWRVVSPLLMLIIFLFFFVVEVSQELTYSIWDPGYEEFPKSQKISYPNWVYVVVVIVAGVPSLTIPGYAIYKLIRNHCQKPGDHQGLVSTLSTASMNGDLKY
T1 sequence (Q9HBJ8 15-222 partner): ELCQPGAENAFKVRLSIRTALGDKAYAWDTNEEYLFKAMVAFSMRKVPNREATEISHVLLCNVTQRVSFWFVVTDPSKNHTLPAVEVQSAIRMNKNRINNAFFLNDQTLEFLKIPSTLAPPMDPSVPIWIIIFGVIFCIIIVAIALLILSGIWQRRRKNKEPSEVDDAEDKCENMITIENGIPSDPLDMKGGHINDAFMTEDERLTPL
Outline: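 CHO cells induced overnight with doxycycline to express human SLC6A19 plus TMEM27; 20 min preincubation with compound (10-point 2-fold series, duplicate) at 37 °C in HEPES buffer pH 7.2, then 20 min with 13C6,15N-isoleucine. Intracellular label quantified by RapidFire MS against 13C-leucine standard; positive control defined 100% inhibition.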

[2] = target: T1, human SLC6A19 and TMEM27; experiment: Radiolabelled (3H) leucine uptake in CHO cells with doxycycline-inducible expression of human SLC6A19 and TMEM27 (Example B-1); type: cell-based; settings: CHO cells with doxycycline-inducible expression of human SLC6A19 and TMEM27, read-out: SLC6A19_Radioligand Uptake Assay IC50
Outline: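 CHO cells were induced with doxycycline for 18 h at 37 °C, washed in HBSS, then exposed to compounds for 1 h: 8-point, 3-fold dilutions in duplicate, 0.5% DMSO final. Uptake measured by scintillation counting after 2 h shaking. Activity normalized with positive control as 0% and DMSO as 100%.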

| pIC50 [1] | pIC50 [2] | Structure (SMILES) |
| --- | --- | --- |
| 6.82 | 6.67 | CC1(C(=O)NCc2cc3cc(C(F)(F)F)c(OCc4ccon4)cc3[nH]2)CC1 [Compound 59, N-((6-(isoxazol-3-ylmethoxy)-5-(trifluoromethyl)-1H-indol-2-yl)methyl)-1-methylcyclopropane-1-carboxamide] |
| 7.15 | 6.60 | CC1(C(=O)NCc2cc3cc(C(F)(F)F)c(OCc4cscn4)cc3[nH]2)CC1 [Compound 60, 1-methyl-N-((6-(thiazol-4-ylmethoxy)-5-(trifluoromethyl)-1H-indol-2-yl)methyl)cyclopropane-1-carboxamide] |
| 7.25 | 6.52 | Cc1cnc(COc2cc3[nH]c(CNC(=O)C4(C)CC4)cc3cc2Cl)s1 [Compound 63, N-((5-chloro-6-((5-methylthiazol-2-yl)methoxy)-1H-indol-2-yl)methyl)-1-methylcyclopropane-1-carboxamide] |
| 7.62 | 7.11 | CC1(C(=O)NCc2cc3cc(Cl)c(OCc4ccoc4)cc3[nH]2)CC1 [Compound 64, N-((5-chloro-6-(furan-3-ylmethoxy)-1H-indol-2-yl)methyl)-1-methylcyclopropane-1-carboxamide] |
| 7.34 | 6.82 | CC1(C(=O)NCc2cc3cc(Cl)c(OCc4cccs4)cc3[nH]2)CC1 [Compound 65, N-((5-chloro-6-(thiophen-2-ylmethoxy)-1H-indol-2-yl)methyl)-1-methylcyclopropane-1-carboxamide] |
| 7.57 | 7.15 | CC1(C(=O)NCc2cc3cc(Cl)c(OCc4ccco4)cc3[nH]2)CC1 [Compound 66, N-((5-chloro-6-(furan-2-ylmethoxy)-1H-indol-2-yl)methyl)-1-methylcyclopropane-1-carboxamide] |
| 6.93 | 6.77 | CC1(C(=O)NCc2cc3cc(Cl)c(OCCc4cscn4)cc3[nH]2)CC1 [Compound 67, N-((5-chloro-6-(2-(thiazol-4-yl)ethoxy)-1H-indol-2-yl)methyl)-1-methylcyclopropane-1-carboxamide] |
| 6.93 | 6.92 | CC1(C(=O)NCc2cc3ccc(OCc4cnsc4)cc3[nH]2)CC1 [Compound 68, N-((6-(isothiazol-4-ylmethoxy)-1H-indol-2-yl)methyl)-1-methylcyclopropane-1-carboxamide] |
| 7.11 | 6.83 | CC1(C(=O)NCc2cc3cc(Cl)c(OCc4cnsc4)cc3[nH]2)CC1 [Compound 69, N-((5-chloro-6-(isothiazol-4-ylmethoxy)-1H-indol-2-yl)methyl)-1-methylcyclopropane-1-carboxamide] |
| 7.21 | 6.93 | Cc1cnc(COc2cc3[nH]c(CNC(=O)C4(C)CC4)cc3cc2Cl)o1 [Compound 70, N-((5-chloro-6-((5-methyloxazol-2-yl)methoxy)-1H-indol-2-yl)methyl)-1-methylcyclopropane-1-carboxamide] |
| 7.47 | 7.00 | CC1(C(=O)NCc2cc3ccc(CCc4cscn4)cc3[nH]2)CC1 [Compound 76, 1-methyl-N-((6-(2-(thiazol-4-yl)ethyl)-1H-indol-2-yl)methyl)cyclopropane-1-carboxamide] |
| 6.78 | 6.82 | O=C(NCc1cc2cc(Cl)c(OCc3cscn3)cc2[nH]1)N1CCC1 [Compound 81, N-((5-chloro-6-(thiazol-4-ylmethoxy)-1H-indol-2-yl)methyl)azetidine-1-carboxamide] |
| 7.35 | 6.83 | O=C(NCc1cc2cc(Cl)c(OCc3cscn3)cc2[nH]1)N1CCCC1 [Compound 82, N-((5-chloro-6-(thiazol-4-ylmethoxy)-1H-indol-2-yl)methyl)pyrrolidine-1-carboxamide] |
| 7.30 | 7.00 | Cc1cc(COc2cc3[nH]c(CNC(=O)N4CCCC4)cc3cc2Cl)on1 [Compound 83, N-((5-chloro-6-((3-methylisoxazol-5-yl)methoxy)-1H-indol-2-yl)methyl)pyrrolidine-1-carboxamide] |
| 5.92 | 6.06 | CC1CCCN1C(=O)NCc1cc2cc(F)c(OCc3ccon3)cc2[nH]1 (stereo not shown) [Compound 90, N-((5-fluoro-6-(isoxazol-3-ylmethoxy)-1H-indol-2-yl)methyl)-2-methylpyrrolidine-1-carboxamide] |
| 6.45 | 6.58 | CC1(C(=O)NCc2cc3cc(Cl)c(OCc4cc(C(F)F)on4)cc3[nH]2)CC1 [Compound 96, N-((5-chloro-6-((5-(difluoromethyl)isoxazol-3-yl)methoxy)-1H-indol-2-yl)methyl)-1-methylcyclopropane-1-carboxamide] |
| 6.04 | 6.38 | CC1(C(=O)NCc2cc3ccc(OCc4cc(C(F)F)on4)cc3[nH]2)CC1 [Compound 97, N-((6-((5-(difluoromethyl)isoxazol-3-yl)methoxy)-1H-indol-2-yl)methyl)-1-methylcyclopropane-1-carboxamide] |
| 6.56 | 6.68 | CC1(C(=O)NCc2cc3ccc(OCc4cccnc4F)cc3[nH]2)CC1 [Compound 98, N-((6-((2-fluoropyridin-3-yl)methoxy)-1H-indol-2-yl)methyl)-1-methylcyclopropane-1-carboxamide formate] |
| 7.09 | 6.80 | Cc1cc(CCOc2cc3[nH]c(CNC(=O)C4(C)CC4)cc3cc2Cl)no1 [Compound 99, N-((5-chloro-6-(2-(5-methylisoxazol-3-yl)ethoxy)-1H-indol-2-yl)methyl)-1-methylcyclopropane-1-carboxamide] |
| 6.40 | 6.70 | CC1(C(=O)NCc2cc3cc(Cl)c(OCc4cc(C5CC5)on4)cc3[nH]2)CC1 [Compound 100, N-((5-chloro-6-((5-cyclopropylisoxazol-3-yl)methoxy)-1H-indol-2-yl)methyl)-1-methylcyclopropane-1-carboxamide] |
| 6.76 | 6.55 | O=C(NCc1cc2cc(Cl)c(OCc3cocn3)cc2[nH]1)N1CCCC1 [Compound 113, N-((5-chloro-6-(oxazol-4-ylmethoxy)-1H-indol-2-yl)methyl)pyrrolidine-1-carboxamide] |
| 6.80 | 6.74 | O=C(NCc1cc2cc(F)c(OCc3cscn3)cc2[nH]1)N1CCCC1 [Compound 114, N-((5-fluoro-6-(thiazol-4-ylmethoxy)-1H-indol-2-yl)methyl)pyrrolidine-1-carboxamide] |
| 6.23 | 6.55 | CC1CCN(C(=O)NCc2cc3ccc(OCc4ccon4)cc3[nH]2)C1 (stereo not shown) [Compound 121, N-((6-(isoxazol-3-ylmethoxy)-1H-indol-2-yl)methyl)-3-methylpyrrolidine-1-carboxamide] |
| 6.11 | 6.44 | O=C(NCc1cc2ccc(OCc3ccon3)cc2[nH]1)N1CCC1 [Compound 122, N-((6-(isoxazol-3-ylmethoxy)-1H-indol-2-yl)methyl)azetidine-1-carboxamide] |
| 6.24 | 6.47 | O=C(NCc1cc2ccc(OCc3ccon3)cc2[nH]1)N1CCCCC1 [Compound 123, N-((6-(isoxazol-3-ylmethoxy)-1H-indol-2-yl)methyl)piperidine-1-carboxamide] |
| 5.88 | 6.35 | CC1CCCN1C(=O)NCc1cc2ccc(OCc3ccon3)cc2[nH]1 (stereo not shown) [Compound 124, N-((6-(isoxazol-3-ylmethoxy)-1H-indol-2-yl)methyl)-2-methylpyrrolidine-1-carboxamide] |
| 6.84 | 6.70 | Cc1cc(COc2cc3[nH]c(CNC(=O)C4(C(F)(F)F)CC4)cc3cc2Cl)no1 [Compound 125, N-((5-chloro-6-((5-methylisoxazol-3-yl)methoxy)-1H-indol-2-yl)methyl)-1-(trifluoromethyl)cyclopropane-1-carboxamide] |
| 6.77 | 7.01 | CCC(=O)NCc1cc2cc(F)c(OCc3cscn3)cc2[nH]1 [Compound 126, N-((5-fluoro-6-(thiazol-4-ylmethoxy)-1H-indol-2-yl)methyl)propionamide] |
| 7.49 | 7.15 | CCC(=O)NCc1cc2cc(Cl)c(OCc3cc(C)on3)cc2[nH]1 [Compound 128, N-((5-chloro-6-((5-methylisoxazol-3-yl)methoxy)-1H-indol-2-yl)methyl)propionamide] |
